Results: patent US20090175981A1, “COMPOSITIONS, METHODS AND USES FOR A NOVEL FAMILY OF PEPTIDES” (priority 2004, published 2009)
Several values for one entry are separate records, joined by “and”; a condition that tells them apart may be missing. Equal values may be shown once. Marks after values point to notes of the source that are not given here.

Tests used:
broiler chickens = experiment: 42-day broiler floor pen trial with natural colibacillosis challenge; type: in vivo, chicken
Procedure: A broiler floor pen trial to compare the performance of a new anti-microbial designated for this project as BT1583 alone and in combination with the widely used coccidiostat monensin (MON) to MON fed alone, MON in combination with the also widely used antimicrobial Bacitracin MD (BMD) and BMD alone.
The following levels of each treatment were evaluated:
The study design included 10 pens per treatment and 40 birds per pen housed on day of hatch. Two basal corn-soy based diets of decreasing protein (approximately 23 to 20%) and increasing metabolizable energy (approximately 1400 to 1455 kcal/lb) were used from Day 0 to 21 (starter feed) and Days 22 to 42 (grower feed), respectively. Treatment premixes were measured and blended into diets at required levels. Between days 0 and 21 mortality was less than 1% with all birds growing optimally and of high health across all groups.
Beginning on study day 22, the study director modulated house temperature and air flow to mimic industry conditions conducive to outbreaks of colibacillosis within naïve broiler flocks. This was done to stimulate a natural challenge for this study. Mortality climbed to a house average of approximately 10% by Day 42. A majority of these deaths occurred in groups not receiving BT1583 or MON. Lesions were consistent with those of colibacillosis (air sac, pneumonia, peri-hepatitis, peri-carditis and extreme morbidity). All mortality was documented (weight at death and post-mortem observations). All birds and feeds were weighed at 42 days. All remaining birds were euthanized on Day 42 by asphyxiation with the carcasses submitted for rendering.
The following variables were tested: Response Variables: Gain Per Bird, Feed Per Gain, Mortality (%), Adjusted Feed Per Gain. F test from One Way ANOVA with one blocking factor=location, at Day 42 using 0.05 level of significance.
All Response Variables: LSD T-test procedure for pair-wise comparisons with Type 1 error of means when ANOVA F ratio is significant, overall significance level of 0.05 used. Lines below means (see Table 30, below) indicate groups with insignificant differences in means.
Adjusted Feed/Gain: The total weight of mortality in each pen was added to the final live weight, that value reduced by subtracting the initial weight and then dividing that value into the Total feed consumed to calculate the Adjusted Feed/Gain.

E. coli = experiment: In vitro antimicrobial MIC, E. coli; type: cell-based
Procedure: (§1) MIC determination assays. Staphylococcal aureus was grown to mid-log phase in LB at 37° C., and diluted by 500-fold with fresh LB and dispensed into 96-well micro-titer plates. Different concentrations of peptides were added, and the micro-titer plates were incubated at 37° C. with shaking. A minimal inhibition concentration (MIC) was determined as the lowest peptide concentration that produced a clear well. All experiments were performed in triplicates, and highly consistent MICs were obtained.
(§2) For Gram (−) the following were the antimicrobial activities observed: E. coli: MIC>20 microgram/ml; Pseudomonas and Salmonella: MIC>100 microgram/ml.

Salmonella = experiment: In vitro antimicrobial MIC, Salmonella; type: cell-based
Procedure: as §1, §2

straight run broilers [1] = experiment: Growth and feed conversion of 3-wk old broilers in batteries, pelleted starter feed (Studies 3-1 and 3-2); type: in vivo, chicken
From the text: Eight (8) study repetitions per treatment were used, again with 4 birds per pen.

Gram-positive bacteria = experiment: In vitro antibacterial MIC, Gram-positive bacteria; type: cell-based; details: most Gram (+)
Procedure: as §1, §2

S. cerevisiae = experiment: In vitro antifungal MIC; type: cell-based
[2] = type: physicochemical; details: pH 1.0 plus 100° C. overnight
Broiler Chicken [3] = experiment: Growth promoting Studies 4-1 and 4-2 with direct coccidial challenge; type: in vivo
straight run broilers [4] = experiment: Growth and feed conversion of 20-day old broilers in batteries, mash feed (Studies 2-1 and 2-2); type: in vivo, chicken
Procedure: Briefly, the peptide was used in a semi-purified form to study the growth and feed conversion of […] old straight run broilers in batteries (Studies 2-1 and 2-2). Two amounts were tested against a feed control, peptide at 6 ppm and peptide at 12 ppm, 12 repetitions were carried out per treatment with 4 birds per pen. The diet used in the study was as follows.

Staphylococcal aureus = experiment: MIC determination assay / antibiotic activity of synthetic BT variants; type: cell-based; details: FIG. 6B
Procedure: as §1

food-producing animals = experiment: Growth promotion in food-producing animals (overall statement); type: in vivo, chicken; details: used to promote growth
From the text: Alternatively, but in no way limiting the present invention, the present invention may be used as an animal-use only antibiotic for bacterial infections.

Tetrahymena = experiment: In vitro anti-protozoal MIC; type: cell-based
Broiler Chicken [5] = experiment: Growth promoting battery Studies 1-1 and 1-2; type: in vivo
Pseudomonas = experiment: In vitro antimicrobial MIC, Pseudomonas; type: cell-based
Procedure: as §1, §2

carboxypeptidase Y = molecular target: T1, carboxypeptidase Y (Saccharomyces cerevisiae, UniProt P00729)
T1 sequence (P00729 112-532): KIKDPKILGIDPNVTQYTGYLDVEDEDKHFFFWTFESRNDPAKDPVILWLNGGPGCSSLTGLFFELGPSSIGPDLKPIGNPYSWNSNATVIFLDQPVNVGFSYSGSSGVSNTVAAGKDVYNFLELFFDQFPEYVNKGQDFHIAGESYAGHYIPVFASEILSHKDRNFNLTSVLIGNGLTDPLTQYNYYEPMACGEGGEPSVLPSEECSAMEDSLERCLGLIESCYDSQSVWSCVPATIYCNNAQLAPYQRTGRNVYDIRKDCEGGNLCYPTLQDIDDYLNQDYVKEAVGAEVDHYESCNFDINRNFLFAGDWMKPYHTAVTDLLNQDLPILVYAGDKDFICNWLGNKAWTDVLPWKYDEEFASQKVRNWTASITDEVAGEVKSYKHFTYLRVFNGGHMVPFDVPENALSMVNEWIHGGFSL

[6] = MON 99 ppm, BT1583 12 ppm, BMD 55 ppm, alone or combined
[7] = BT1583 12 ppm, BMD 50 ppm, COB 90 ppm, alone or combined, pelleted feed
[8] = Study 4-1, 24 ppm with direct coccidial challenge
[9] = Study 4-2, 48 ppm with direct coccidial challenge

In the case of “Me2Bmt-L-dO-I-V-V-dK-V-dL-K-dY-L-V-CH2OH [BT1583]”, the efficacy against colibacillosis (broiler chickens; 3 to 4 week old naïve broiler chickens, simulated commercial conditions) is reported as “highly effective”, the “feed/gain advantage over monensin and BMD fed alone and in combination” value (broiler chickens; Day 42) is reported as ≥ 10 point and the “weight gain advantage over monensin and BMD fed alone and in combination” value (broiler chickens; Day 42) is reported as ≥ 20 point. For the same substance, the “Day 42 Feed/Gain” value (broiler chickens; [6]) was 1.722^ab, the “Day 42 Gain/Bird” value (broiler chickens; [6]) was 4.333^ab lb and the “Day 42 Mortality (%)” value (broiler chickens; acute and chronic colibacillosis, MON 99 ppm, BT1583 12 ppm, BMD 55 ppm) was 2.75^a %. For the same substance, the “Day 42 Adjusted Feed/Gain” value (broiler chickens; adjusted for weight of mortality, MON 99 ppm, BT1583 12 ppm, BMD 55 ppm) was 1.704^ab, the “mortality rate compared with non-supplemented controls” value (broiler chickens; alone or in combination) was “lower mortality rates” and the MIC (E. coli) was > 20 microgram/ml. For the same substance, the MIC (Salmonella) was > 100 microgram/ml, the “20-day cumulative feed conversion rate, Mean” value (straight run broilers [1]; [7]) was 1.3308 and the “21-day cumulative feed conversion rate, Estimated Marginal Mean” value (straight run broilers [1]; [7]) was 1.331. For the same substance, the “21-day cumulative weight gain, Mean” value (straight run broilers [1]; [7]) was 831.7396 and 831.740, the “Additional weight gain (%)” value (straight run broilers [1]; Study 3-1, 12 ppm) was 16% and the “Feed conversion improvement (point)” value (straight run broilers [1]; Study 3-1, 12 ppm) was 9 point. For the same substance, the “Additional weight gain (%)” value (straight run broilers [1]; Study 3-2, 12 ppm with Coban) was 5.4%, the “Feed conversion improvement (point)” value (straight run broilers [1]; Study 3-2, 12 ppm with Coban (vs Coban alone)) was 9 point and the MIC (Gram-positive bacteria) was 1 microgram/ml. The MIC (S. cerevisiae) was 50 microgram/ml, the in vitro inactivation [2] was “only known in vitro method to inactivate it is pH 1.0 plus 100 °C overnight” and the “Additional weight gain (%)” value (Broiler Chicken [3]; [8]) was 7.1%. The “Feed conversion improvement (point)” value (Broiler Chicken [3]; [8]) was 13 point, the “Additional weight gain (%)” value (Broiler Chicken [3]; [9]) was 9.3% and the “Feed conversion improvement (point)” value (Broiler Chicken [3]; [9]) was 17 point. For the same substance, the “20-day cumulative feed conversion rate, Mean” value (straight run broilers [4]; 6 ppm in mash feed) was 1.5065 and 1.506, the “20-day cumulative weight gain, Mean” value (straight run broilers [4]; 6 ppm in mash feed) was 591.975 and the “20-day cumulative feed conversion rate, Mean” value (straight run broilers [4]; 12 ppm in mash feed) was 1.4959 and 1.496. The “20-day cumulative weight gain, Mean” value (straight run broilers [4]; 12 ppm in mash feed) was 618.934, the “Additional weight gain (%)” value (straight run broilers [4]; Study 2-1, 6 ppm) was 6.7% and the “Feed conversion improvement (point)” value (straight run broilers [4]; Study 2-1, 6 ppm) was 9 point. For the same substance, the “Additional weight gain (%)” value (straight run broilers [4]; Study 2-2, 12 ppm) was 11%, the “Feed conversion improvement (point)” value (straight run broilers [4]; Study 2-2, 12 ppm) was 10 point and the antibiotic activity (Staphylococcal aureus) was “full antibiotic activity”. The feed conversion gain (food-producing animals) was “about 10 points”, the MIC (Tetrahymena) was 25 microgram/ml and the “Additional weight gain (%)” value (Broiler Chicken [5]; Study 1-1, 10 ppm) was 17%. The “Feed conversion improvement (point)” value (Broiler Chicken [5]; Study 1-1, 10 ppm) was 7 point, the “Additional weight gain (%)” value (Broiler Chicken [5]; Study 1-2, 30 ppm) was 17% and the “Feed conversion improvement (point)” value (Broiler Chicken [5]; Study 1-2, 30 ppm) was 8 point. The MIC (Pseudomonas) was > 100 microgram/ml and the “cleavage by carboxypeptidase Y” value (carboxypeptidase Y) was “resistant”.
